This note sets out measurements from patent US20120245111A1, “FLAVANONES-CONTAINING FOOD COMPOSITIONS” (NESTEC S.A., priority 2009, published 2012).

The nature of this data set: Particle size distribution of hesperidin in water by laser diffraction (Malvern Mastersizer 2000). Type of data set: physicochemical. The procedure: The particle size distribution is observed using a microscopy optic LEICA DMR (mode Differential Interference Contrast and polarisation). The particle size distribution is measured by laser diffraction using a Malvern Mastersizer 2000.
The hesperidin obtainable by the heat treatment processes of the invention has a smaller size distribution compared to commercially available hesperidin as illustrated in FIG. 3.
For variant 3 (140° C., 60 s) and variant 4 (160° C., 10 s), the cumulative distribution of particle size below 20 microns increases to 99%. Thus, it can be seen that the heat treatment has an influence on the particle size of hesperidin and on the conformation of hesperidin particles. Therefore, sedimentation is avoided.

Consider `COc1ccc([C@@H]2CC(=O)c3c(O)cc(O[C@@H]4O[C@H](CO[C@@H]5O[C@@H](C)[C@H](O)[C@@H](O)[C@H]5O)[C@@H](O)[C@H](O)[C@H]4O)cc3O2)cc1O` [commercially available hesperidin, hesperidin], for which, under “0.5% hesperidin in water, before or after UHT treatment”, the “% of cumulative distribution of hesperidin particle below 20 microns” value was determined as 40%. Also, the “crystal size distribution range” value (commercially available hesperidin extract, crystalline form) was in the range of 0.1 to 160 microns.
